The record followed here is US5952328A, “Benzothiazo and related heterocyclic group-containing cysteine and serine protease inhibitors” (Cephalon, Inc., priority 1997, dated 1999).

Where two headings read alike, the source gives them in different places.

The assay concerns the target T1, Calpain I (Homo sapiens, UniProt P07384).
T1 construct: made in house
T1 sequence (P07384 1-714): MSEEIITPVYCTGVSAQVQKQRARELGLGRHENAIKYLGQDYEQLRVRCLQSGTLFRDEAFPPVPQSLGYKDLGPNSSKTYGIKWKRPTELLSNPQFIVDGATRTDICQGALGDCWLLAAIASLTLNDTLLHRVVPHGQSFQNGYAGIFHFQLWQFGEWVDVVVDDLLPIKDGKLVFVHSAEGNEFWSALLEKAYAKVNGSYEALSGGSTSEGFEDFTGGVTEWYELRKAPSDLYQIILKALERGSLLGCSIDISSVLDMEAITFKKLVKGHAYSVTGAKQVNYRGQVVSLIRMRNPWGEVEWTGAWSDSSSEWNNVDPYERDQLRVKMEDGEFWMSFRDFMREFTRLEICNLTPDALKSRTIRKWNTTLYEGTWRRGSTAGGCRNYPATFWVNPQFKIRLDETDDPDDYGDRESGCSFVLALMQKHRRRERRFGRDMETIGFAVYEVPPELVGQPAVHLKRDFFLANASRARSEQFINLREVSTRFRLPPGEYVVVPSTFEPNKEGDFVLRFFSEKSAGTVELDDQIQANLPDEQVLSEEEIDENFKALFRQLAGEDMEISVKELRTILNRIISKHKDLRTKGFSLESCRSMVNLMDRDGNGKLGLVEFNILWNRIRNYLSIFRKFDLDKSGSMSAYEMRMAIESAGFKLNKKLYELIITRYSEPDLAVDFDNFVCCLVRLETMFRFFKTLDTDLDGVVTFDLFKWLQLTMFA
T1 sequence (P04632 1-268 partner): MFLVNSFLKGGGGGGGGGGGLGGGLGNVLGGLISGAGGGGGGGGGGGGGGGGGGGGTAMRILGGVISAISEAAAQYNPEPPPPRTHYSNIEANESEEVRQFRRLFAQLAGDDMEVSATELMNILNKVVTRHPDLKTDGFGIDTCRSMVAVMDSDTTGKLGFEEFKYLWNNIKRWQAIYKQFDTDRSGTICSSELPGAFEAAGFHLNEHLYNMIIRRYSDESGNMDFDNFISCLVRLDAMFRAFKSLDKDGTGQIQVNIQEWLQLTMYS
The assay can be described thus: Inhibition of calpain I activity (Succ-Leu-Tyr-MNA substrate hydrolysis, fluorescence). In kind it is biochemical. Particulars: calpain I, 0.2 mM Succ-Leu-Tyr-MNA, pH 7.5, * mixture of diastereomers, a,b single diastereomers, read-out: IC50. The method, then:
To evaluate inhibitory activity, stock solutions (40 times concentrated) of each compound to be tested were prepared in 100% anhydrous DMSO and […] of each inhibitor preparation were aliquoted into each of three wells of a 96-well plate. Calpain I, prepared by a modification of the method of W. J. Lee et al. (Biochem. […] To start the reaction, […] of 50 mM CaCl2 in assay buffer was added to each of the wells of the plate, excepting three, which were used as background signal baseline controls. Substrate hydrolysis was monitored every 5 minutes for a total of 30 minutes using a Fluoroskan II fluorescence plate reader. […] Inhibition of calpain I activity was calculated as the percent decrease in the rate of substrate hydrolysis in the presence of inhibitor relative to the rate in its absence. Comparison between the inhibited and control rates was made within the linear range for substrate hydrolysis. For screening, compounds were tested at […]. […] The results were plotted as percent inhibition versus log inhibitor concentration, and the IC50 was calculated from linear regression of the data.

The term IC50 denotes the concentration needed to halve the response being measured. Consider `CN1C(C(=O)N[C@H](C=O)Cc2ccccc2)Cc2cc(Cl)ccc2S1(=O)=O` (stereo partly drawn) [Cpd 12p, N-(6-Chloro-3,4-dihydro-2-methyl-2H-1,2-benzothiazine-3-carbonyl)-L-phenylalaninal 1,1-dioxide], for which the IC50 (Table II) is 5 nM.
Same read-out and setting: to `COc1cc2c(cc1OC)S(=O)(=O)OC(C(=O)N[C@H](C=O)Cc1ccccc1)C2` (stereo partly drawn) [Cpd 12b, N-(3,4-Dihydro-6,7-dimethoxy-2,1-benzoxathiin-3-carbonyl)-L-phenylalaninal 1,1-dioxide] belongs 51 nM.
`CCN1C(C(=O)N[C@@H](Cc2ccccc2)C(=O)C(=O)NCCCNS(=O)(=O)c2ccccc2)Cc2cc3c(cc2S1(=O)=O)OCCO3` (stereo partly drawn) [Cpd 14AA, 3-((3,4-Dihydro-6,7-ethylenedioxy-2-ethyl-2H-1,2-benzothiazine-3-carbonyl)amino)-3-(S)-benzyl-2-oxo-N-(3-(benzenesulfonylamino)propyl)propanamide 1,1-dioxide]: the IC50 (Table III) came to 35 nM.
As for `CN1C(C(=O)N[C@H](C=O)Cc2ccccc2)Cc2ccccc2S1(=O)=O` (stereo partly drawn) [Cpd 12j, N-(3,4-Dihydro-2-methyl-2H-1,2-benzothiazine-3-carbonyl)-L-phenylalaninal 1,1-dioxide], the IC50 (Table II) worked out at 110 nM.
